Experiment [1] deals with Tyrosine-protein phosphatase non-receptor type 12 (Homo sapiens, UniProt Q05209). Briefly: SAR Selectivity Analysis of small molecule inhibitors of PEST using pCAP in a fluorescence assay. [Related pubchem assays (depositor defined):AID1779, AID1784, AID2135]. In kind it is functional.
The nature of experiment [2]: Luminescence Cell-Based Dose Response HTS to Identify Inhibitors of 5'UTR Stem-Loop Driven Prion Protein mRNA Translation in H4 Neuroglioblastoma Cells. [Related pubchem assays: 1827 (Project Summary), 1813 (Primary HTS)]. In kind it is functional.
Experiment [3] has as its target T1, G-protein coupled receptor 35 (Homo sapiens, UniProt Q9HC97). Briefly: inhibition of zaprinast-stimulated GPR35 beta-arrestin translocation – imaging, U2OS, beta-arrestin-GFP, zaprinast agonist, primary screen (AID 2058).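 Further: antagonist potency meaning inhibition of agonist-induced arrestin redistribution.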 In kind it is functional.
Experiment [4] can be described thus: luciferase reporter signal suppression in cells – H4 neuroglioma cells, luminescence, dose response (AID 1990). Format: functional, cell-based. Background: A reporter such as luciferase makes a cellular process visible.
The target of experiment [5] is T1, G-protein coupled receptor 35. Briefly: SAR Analysis for the identification of Selective Antagonists of ERK1/2 Activity in GPR35-Overexpressing U2OS Cells. [Related pubchem assays: 2079, 2058 ]. Format: functional, cell-based.
For experiment [6], the target named is T2, Tyrosine-protein phosphatase non-receptor type 22 (Homo sapiens, UniProt Q9Y2R2).
T2 sequence (Q9Y2R2 whole entry): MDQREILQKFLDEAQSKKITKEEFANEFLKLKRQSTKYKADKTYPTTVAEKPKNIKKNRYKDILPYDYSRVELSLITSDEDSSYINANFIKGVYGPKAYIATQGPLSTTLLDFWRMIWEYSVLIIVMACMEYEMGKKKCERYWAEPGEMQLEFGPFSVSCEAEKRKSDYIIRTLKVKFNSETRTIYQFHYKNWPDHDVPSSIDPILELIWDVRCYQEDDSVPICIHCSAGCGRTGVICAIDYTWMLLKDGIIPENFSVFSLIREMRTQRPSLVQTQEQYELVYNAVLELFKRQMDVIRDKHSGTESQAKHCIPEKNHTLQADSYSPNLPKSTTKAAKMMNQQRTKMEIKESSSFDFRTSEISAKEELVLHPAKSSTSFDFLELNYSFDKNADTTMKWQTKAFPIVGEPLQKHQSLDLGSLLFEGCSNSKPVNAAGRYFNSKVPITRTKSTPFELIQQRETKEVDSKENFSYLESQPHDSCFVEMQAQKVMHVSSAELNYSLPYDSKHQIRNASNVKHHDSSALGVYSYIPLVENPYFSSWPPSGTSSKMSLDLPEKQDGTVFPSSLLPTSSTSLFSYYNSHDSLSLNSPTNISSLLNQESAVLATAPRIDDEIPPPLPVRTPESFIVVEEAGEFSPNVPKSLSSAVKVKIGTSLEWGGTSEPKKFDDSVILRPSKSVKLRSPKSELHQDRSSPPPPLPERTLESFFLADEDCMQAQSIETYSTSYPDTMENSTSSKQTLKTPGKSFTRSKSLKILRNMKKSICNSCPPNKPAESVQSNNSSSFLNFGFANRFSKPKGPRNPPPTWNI
Briefly: inhibition of lymphoid tyrosine phosphatase LYP – biochemical, pCAP fluorogenic substrate, fluorescence, set 3, SAR follow-up (AID 449727). In kind it is functional.

Experiment [7] in a line: alpha-synuclein stem-loop luciferase translation blockers – H4 neuroglioma cells, luminescence, confirmation (AID 1988). Format: functional, cell-based.
Experiment [8] addresses G-protein coupled receptor 55 (Homo sapiens, UniProt Q9Y2T6). In words: blockers of GPR55 signalling, imaged – imaging, image-based, counter-screen for GPR35 antagonist project, SAR follow-up (AID 2397). In kind it is functional.
Experiment [9] addresses T2, Tyrosine-protein phosphatase non-receptor type 22. Briefly: SAR LYP1 Fluorescent Assay using OMFP substrate for In Vitro dose response studies - Set 3. [Related pubchem assays (depositor defined):AID1779, AID1784, AID2140, AID2686]. In kind it is functional.
Experiment [10] deals with T3, Tyrosine-protein phosphatase non-receptor type 7 (Homo sapiens, UniProt P35236).
T3 sequence (P35236 whole entry): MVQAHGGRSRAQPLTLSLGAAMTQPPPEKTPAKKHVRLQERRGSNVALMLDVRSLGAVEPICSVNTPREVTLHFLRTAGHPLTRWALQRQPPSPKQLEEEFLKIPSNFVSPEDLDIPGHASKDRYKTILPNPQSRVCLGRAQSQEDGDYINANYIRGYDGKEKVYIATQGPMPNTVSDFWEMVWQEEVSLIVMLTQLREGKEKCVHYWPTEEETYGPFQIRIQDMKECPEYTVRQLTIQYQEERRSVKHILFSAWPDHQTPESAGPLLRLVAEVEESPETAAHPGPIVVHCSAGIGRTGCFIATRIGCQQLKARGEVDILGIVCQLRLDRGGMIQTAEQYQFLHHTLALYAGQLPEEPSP
In words: inhibition of hematopoietic tyrosine phosphatase HePTP – biochemical, set 2, SAR follow-up (AID 449736). Format: functional.

Experiment [11] concerns BJ. Briefly: BJ-TERT fibroblast viability loss – cell-based, RAS-independent, luminescence, dose response (AID 1933). Format: functional. Particulars: Homo sapiens.
The subject of experiment [12] is BJ. Briefly: BJ-TERT-LT-ST fibroblast viability loss – cell-based, RAS-independent, luminescence, dose response (AID 1935).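 Further: BJ fibroblasts immortalized with TERT plus LT and ST oncogenes.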 Format: functional. Particulars: Homo sapiens.
Experiment [13] has as its target T4, Streptokinase A (Streptococcus pyogenes serotype M1, UniProt P10520).
T4 sequence (P10520 whole entry): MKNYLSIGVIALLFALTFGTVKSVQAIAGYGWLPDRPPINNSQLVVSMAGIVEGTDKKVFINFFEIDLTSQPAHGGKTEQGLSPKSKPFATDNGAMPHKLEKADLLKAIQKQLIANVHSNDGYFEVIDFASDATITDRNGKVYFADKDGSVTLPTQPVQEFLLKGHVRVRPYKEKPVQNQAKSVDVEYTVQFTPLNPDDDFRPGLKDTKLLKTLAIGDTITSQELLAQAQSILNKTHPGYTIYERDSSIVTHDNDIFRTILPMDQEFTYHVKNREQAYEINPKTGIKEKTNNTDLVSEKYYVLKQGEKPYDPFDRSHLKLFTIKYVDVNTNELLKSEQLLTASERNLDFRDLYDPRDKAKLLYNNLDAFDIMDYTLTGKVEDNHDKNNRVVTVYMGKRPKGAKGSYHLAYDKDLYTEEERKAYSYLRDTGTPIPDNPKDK
Briefly: viability-normalized secreted streptokinase activity reduction – plasminogen activation absorbance, OD405, dose response (AID 1914).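 Further: secreted streptokinase activity via plasminogen activation per viability signal from cell pellet.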 Format: functional, Streptococcus pyogenes M1 GAS.

For experiment [14], the target named is Cytochrome P450 3A4 (Homo sapiens, UniProt P08684).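 Further: CYP3A4 tested as one member of a cytochrome P450 panel screen.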
A short description of experiment [15]: Counterscreen for AddAB inhibitors: absorbance-based bacterial cell-based high throughput dose response assay for inhibitors of bacterial viability. [Related pubchem assays (depositor defined):AID435030, AID449728, AID449731, AID488942, AID488955, AID488956]. Format: functional.
The subject of experiment [16] is Streptococcus sp. 'group A'. Briefly: Streptococcus pyogenes SK(-)GAS viability under kanamycin – luminescence, BacTiterGlo, confirmation, counter-screen for streptokinase expression inhibitor project, dose response (AID 1900). In kind it is functional, organism-based. (In general: The purpose of a counterscreen is to sort out artefacts and off-target activity.)

Experiment [17] deals with T5, Cytochrome P450 1A2 (Homo sapiens, UniProt P05177).
T5 sequence (P05177 whole entry): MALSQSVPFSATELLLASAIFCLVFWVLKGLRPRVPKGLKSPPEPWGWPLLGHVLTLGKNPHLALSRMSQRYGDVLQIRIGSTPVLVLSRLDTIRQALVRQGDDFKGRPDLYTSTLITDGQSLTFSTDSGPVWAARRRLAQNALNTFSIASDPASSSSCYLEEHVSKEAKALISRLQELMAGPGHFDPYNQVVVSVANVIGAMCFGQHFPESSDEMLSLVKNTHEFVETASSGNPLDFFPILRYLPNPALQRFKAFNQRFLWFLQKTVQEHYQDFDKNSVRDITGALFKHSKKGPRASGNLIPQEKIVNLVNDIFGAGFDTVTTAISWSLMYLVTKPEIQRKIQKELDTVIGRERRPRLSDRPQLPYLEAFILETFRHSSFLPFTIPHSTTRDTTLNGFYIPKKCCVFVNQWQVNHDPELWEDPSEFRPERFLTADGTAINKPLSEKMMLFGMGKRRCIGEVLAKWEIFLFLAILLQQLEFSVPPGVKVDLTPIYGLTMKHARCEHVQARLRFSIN

The test system of experiment [18] is Streptococcus. In words: GAS UMAA2166 growth inhibition – luminescence, BacTiterGlo, counter-screen for streptokinase expression inhibitor project, dose response (AID 1915).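 Further: potency for reduction of bacterial viability or growth.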 Format: functional, organism-based.
The target of experiment [19] is Sphingosine 1-phosphate receptor 2 (Homo sapiens, UniProt O95136). In words: Dose Response Cell Based Assay for Antagonists of the S1P2 Receptor. [Related pubchem assays: 856, 736 ]. In kind it is functional.
For experiment [20], the system named is INS1. Briefly: INS-1E survival protection against cytokine death – cell-based, luminescence, retest, dose response (AID 449756).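 Further: cell death triggered by IL-1 beta plus TNF-alpha plus IFN-gamma mixture; protective hits raise ATP signal compared with cytokine alone wells.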 Particulars: Rattus norvegicus. Format: functional.
For experiment [21], the target named is Cytochrome P450 2C19 (Homo sapiens, UniProt P33261). In words: Cytochrome panel assay with activity outcomes. Panel member name: p450-cyp2c19 Compounds with AC50 equal or less than 10 uM are considered active. In kind it is functional. Particulars: read-out: AC50.
Experiment [22] has as its target Exodeoxyribonuclease V (Escherichia coli (strain K12), UniProt P04993+P07648+P08394). In words: RecBCD inhibition via phage-restricted bacterial growth – absorbance, V66 E. coli, mutant T4 phage, counter-screen for AddAB inhibitor project, dose response (AID 492957). Format: functional, cell-based, Escherichia coli str. K-12 substr. MG1655.
The test system of experiment [23] is BJ. In words: cells. In kind it is functional, cell-based. Conditions: Homo sapiens.
For experiment [24], the target named is Bcl-2-like protein 10 (Homo sapiens, UniProt Q9HD36). In words: Bcl-B/TR3 peptide binding disruption – biochemical, fluorescence polarization, FITC-TR3 peptide, selectivity assay for Bfl-1 inhibitor project, primary screen (AID 748).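 Further: fluorescence polarization from a fluorescein-labelled TR3 peptide binding purified Bcl-B.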
Experiment [25] can be described thus: DRD fibroblast viability loss – cell-based, non-viral oncogenic, luminescence, dose response (AID 1934). Format: functional. Conditions: Homo sapiens.

The source made the active and inactive calls.

By IC50 is commonly meant the concentration needed to halve the response being measured. One may read the EC50 as the concentration giving half of the maximal effect. One may read the AC50 as the concentration at which the activity in the assay is half-maximal.

T1 sequence (Q9HC97 whole entry): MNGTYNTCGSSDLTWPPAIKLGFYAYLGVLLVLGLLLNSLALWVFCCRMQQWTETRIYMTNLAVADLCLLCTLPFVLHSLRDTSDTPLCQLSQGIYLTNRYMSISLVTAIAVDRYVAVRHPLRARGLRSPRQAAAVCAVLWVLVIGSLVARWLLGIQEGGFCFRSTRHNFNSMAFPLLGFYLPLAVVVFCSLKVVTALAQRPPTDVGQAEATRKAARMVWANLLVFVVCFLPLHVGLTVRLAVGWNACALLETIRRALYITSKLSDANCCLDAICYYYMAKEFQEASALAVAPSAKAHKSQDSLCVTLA
Sequence of Exodeoxyribonuclease V (P04993 whole entry): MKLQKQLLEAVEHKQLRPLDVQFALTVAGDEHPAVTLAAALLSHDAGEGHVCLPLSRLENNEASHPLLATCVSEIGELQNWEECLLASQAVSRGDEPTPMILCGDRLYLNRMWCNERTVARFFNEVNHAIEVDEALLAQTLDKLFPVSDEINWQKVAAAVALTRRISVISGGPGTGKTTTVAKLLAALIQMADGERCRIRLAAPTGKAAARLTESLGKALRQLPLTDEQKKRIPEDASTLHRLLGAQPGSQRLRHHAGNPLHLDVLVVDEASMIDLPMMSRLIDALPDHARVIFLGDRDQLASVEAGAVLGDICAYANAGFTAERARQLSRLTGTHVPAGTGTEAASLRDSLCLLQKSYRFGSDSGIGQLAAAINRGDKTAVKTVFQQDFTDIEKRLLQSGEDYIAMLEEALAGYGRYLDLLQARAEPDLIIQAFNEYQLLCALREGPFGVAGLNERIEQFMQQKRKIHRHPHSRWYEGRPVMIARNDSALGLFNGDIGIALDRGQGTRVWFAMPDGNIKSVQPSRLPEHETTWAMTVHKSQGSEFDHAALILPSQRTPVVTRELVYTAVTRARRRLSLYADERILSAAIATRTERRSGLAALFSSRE
Sequence of Exodeoxyribonuclease V (P07648 whole entry): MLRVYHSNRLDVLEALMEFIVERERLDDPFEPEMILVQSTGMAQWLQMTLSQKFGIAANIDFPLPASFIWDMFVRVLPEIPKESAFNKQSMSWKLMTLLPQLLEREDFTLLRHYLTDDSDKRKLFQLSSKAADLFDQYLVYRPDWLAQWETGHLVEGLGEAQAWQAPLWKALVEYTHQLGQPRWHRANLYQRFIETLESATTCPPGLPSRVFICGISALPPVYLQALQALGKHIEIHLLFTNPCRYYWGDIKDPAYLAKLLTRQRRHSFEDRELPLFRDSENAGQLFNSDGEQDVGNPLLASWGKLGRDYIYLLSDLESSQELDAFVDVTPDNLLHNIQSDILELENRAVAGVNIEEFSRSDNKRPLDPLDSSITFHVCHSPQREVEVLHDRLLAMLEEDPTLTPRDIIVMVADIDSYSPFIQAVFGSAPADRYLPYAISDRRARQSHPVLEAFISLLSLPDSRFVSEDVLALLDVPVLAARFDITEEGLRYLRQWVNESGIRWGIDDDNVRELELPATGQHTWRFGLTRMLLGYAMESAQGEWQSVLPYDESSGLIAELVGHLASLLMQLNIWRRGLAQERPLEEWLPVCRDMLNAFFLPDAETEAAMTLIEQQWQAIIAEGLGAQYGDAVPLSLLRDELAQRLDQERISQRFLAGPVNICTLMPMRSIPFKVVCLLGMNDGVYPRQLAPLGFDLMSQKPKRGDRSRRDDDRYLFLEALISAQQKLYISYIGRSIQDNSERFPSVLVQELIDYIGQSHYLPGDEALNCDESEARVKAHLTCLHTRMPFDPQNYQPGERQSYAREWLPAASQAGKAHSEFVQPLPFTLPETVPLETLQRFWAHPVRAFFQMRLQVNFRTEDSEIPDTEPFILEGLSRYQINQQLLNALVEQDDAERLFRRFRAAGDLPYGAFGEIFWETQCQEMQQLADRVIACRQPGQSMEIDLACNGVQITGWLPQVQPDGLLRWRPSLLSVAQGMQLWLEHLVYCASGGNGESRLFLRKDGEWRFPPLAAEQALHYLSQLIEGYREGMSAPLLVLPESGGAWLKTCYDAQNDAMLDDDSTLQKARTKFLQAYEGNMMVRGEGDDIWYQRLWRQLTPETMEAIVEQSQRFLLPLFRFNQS
Sequence of Exodeoxyribonuclease V (P08394 whole entry): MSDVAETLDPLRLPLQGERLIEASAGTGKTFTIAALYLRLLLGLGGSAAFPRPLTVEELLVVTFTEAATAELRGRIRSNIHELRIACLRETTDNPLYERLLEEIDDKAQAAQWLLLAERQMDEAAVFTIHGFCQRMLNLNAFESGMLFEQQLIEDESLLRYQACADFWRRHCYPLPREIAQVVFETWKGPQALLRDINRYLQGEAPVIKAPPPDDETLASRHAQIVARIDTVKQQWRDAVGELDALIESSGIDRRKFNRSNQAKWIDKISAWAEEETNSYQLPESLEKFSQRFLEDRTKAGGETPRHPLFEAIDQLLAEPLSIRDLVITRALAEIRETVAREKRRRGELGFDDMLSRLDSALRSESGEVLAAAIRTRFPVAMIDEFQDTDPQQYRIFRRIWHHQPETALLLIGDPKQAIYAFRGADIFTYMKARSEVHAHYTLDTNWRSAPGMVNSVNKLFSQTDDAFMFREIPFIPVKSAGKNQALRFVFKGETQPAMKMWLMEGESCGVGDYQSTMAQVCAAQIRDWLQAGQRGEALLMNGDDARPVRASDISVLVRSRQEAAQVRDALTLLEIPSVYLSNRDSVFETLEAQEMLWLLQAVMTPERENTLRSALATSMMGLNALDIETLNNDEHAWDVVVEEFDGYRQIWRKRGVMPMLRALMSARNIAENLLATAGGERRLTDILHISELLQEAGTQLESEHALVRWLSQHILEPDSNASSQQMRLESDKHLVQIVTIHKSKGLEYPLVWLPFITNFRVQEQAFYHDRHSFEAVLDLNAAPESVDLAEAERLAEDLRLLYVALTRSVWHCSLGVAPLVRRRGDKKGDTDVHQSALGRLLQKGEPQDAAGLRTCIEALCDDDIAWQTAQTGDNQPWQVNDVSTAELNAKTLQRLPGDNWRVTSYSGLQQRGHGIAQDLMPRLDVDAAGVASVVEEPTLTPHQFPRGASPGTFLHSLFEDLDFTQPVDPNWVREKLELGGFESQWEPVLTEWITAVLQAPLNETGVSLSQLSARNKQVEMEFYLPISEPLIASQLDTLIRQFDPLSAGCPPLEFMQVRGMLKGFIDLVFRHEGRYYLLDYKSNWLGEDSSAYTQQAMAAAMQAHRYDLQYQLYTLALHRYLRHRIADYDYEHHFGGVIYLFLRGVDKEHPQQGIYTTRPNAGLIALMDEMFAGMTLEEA
Sequence of Tyrosine-protein phosphatase non-receptor type 12 (Q05209 whole entry): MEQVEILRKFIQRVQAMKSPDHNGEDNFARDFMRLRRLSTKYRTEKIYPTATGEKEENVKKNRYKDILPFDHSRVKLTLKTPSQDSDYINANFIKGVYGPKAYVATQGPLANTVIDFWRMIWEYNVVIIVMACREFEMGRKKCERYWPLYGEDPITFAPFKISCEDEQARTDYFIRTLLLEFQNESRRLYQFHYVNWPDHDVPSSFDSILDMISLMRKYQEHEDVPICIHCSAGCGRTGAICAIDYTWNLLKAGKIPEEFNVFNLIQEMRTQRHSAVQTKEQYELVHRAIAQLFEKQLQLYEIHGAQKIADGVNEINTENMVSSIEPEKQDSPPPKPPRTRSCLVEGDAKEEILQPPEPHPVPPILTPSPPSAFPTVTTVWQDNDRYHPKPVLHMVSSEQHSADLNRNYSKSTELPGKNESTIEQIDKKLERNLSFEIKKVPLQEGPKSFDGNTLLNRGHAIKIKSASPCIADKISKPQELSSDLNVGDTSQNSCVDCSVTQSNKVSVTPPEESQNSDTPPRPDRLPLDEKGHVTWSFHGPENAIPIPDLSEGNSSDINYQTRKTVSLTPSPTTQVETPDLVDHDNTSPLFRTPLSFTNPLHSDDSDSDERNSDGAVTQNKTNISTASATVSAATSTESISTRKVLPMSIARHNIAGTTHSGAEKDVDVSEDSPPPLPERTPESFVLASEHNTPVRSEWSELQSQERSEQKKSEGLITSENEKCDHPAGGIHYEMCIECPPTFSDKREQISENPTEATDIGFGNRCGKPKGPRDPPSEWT
Sequence of G-protein coupled receptor 55 (Q9Y2T6 whole entry): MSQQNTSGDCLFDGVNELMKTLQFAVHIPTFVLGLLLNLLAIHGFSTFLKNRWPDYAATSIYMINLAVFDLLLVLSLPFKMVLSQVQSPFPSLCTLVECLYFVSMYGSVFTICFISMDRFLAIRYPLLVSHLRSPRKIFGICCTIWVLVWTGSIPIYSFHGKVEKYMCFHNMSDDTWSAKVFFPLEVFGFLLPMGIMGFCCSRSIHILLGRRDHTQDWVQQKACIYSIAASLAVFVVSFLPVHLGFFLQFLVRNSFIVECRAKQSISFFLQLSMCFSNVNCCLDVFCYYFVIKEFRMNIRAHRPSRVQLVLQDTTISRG
Sequence of Bcl-2-like protein 10 (Q9HD36 whole entry): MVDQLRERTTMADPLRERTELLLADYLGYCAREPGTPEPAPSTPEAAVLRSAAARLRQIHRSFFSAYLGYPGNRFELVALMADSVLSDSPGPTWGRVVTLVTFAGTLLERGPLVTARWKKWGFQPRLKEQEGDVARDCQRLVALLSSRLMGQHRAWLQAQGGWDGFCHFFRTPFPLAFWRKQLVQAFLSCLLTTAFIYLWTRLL
Sequence of Cytochrome P450 3A4 (P08684 whole entry): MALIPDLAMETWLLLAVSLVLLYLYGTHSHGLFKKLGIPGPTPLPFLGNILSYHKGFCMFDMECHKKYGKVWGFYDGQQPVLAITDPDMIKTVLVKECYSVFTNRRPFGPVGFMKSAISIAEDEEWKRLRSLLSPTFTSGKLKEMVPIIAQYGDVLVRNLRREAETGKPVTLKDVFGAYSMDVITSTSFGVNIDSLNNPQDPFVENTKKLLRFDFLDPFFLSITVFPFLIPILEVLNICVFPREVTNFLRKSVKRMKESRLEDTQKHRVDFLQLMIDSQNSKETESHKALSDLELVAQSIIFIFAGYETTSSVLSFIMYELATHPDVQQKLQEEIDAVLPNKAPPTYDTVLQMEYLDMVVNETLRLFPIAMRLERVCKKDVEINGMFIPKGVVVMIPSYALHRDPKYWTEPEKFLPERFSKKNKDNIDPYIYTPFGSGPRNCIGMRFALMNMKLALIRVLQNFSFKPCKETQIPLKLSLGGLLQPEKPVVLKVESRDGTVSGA

Turning to `O=C(CCCN1C(=O)/C(=C/c2ccc3c(c2)OCO3)SC1=S)Nc1cccc(C(=O)O)c1`, the IC50 in [1] is 37.4 µM (active); in experiment [3], 0.803 µM (active); in experiment [5], 1.89 µM (active); in experiment [6], 62.7 µM (active); in [8], > 32 µM (inactive); in [9], > 100 µM (inactive). The IC50 in experiment [10] is 2.47 µM (active). Besides, the EC50 in experiment [2] is 17.5 µM (active); in experiment [4], 10.2 µM (active); in [7] it was > 120 µM (not active).

With `Cc1ccc(-[n+]2c(-c3ccc(Br)cc3)cn3c2CCc2ccc4cccnc4c2-3)cc1`, the EC50 was 0.649 µM (inconclusive) in [11]; 2.98 µM (inconclusive) in experiment [12]; 6.5 µM (active) in [13]; 6.51 µM (active) in [16]; > 50 µM (not active) in experiment [18]; 1.69 µM (inconclusive) in experiment [23]. The EC50 in [25] was 3.51 µM (active). Further, the AC50 in experiment [14] is 4.47 µM (inconclusive); in experiment [17], 25.1 µM (inconclusive); in experiment [20], 0.412 µM (active); in experiment [21], 28.2 µM (inconclusive). The IC50 in experiment [15] was 16.9 µM (inactive); in experiment [19], 4.28 µM (active); in experiment [22] it was 28.4 µM (inactive); in [24] it was 41.4 µM (active).

(Values after ChEMBL document CHEMBL1201862, “PubChem BioAssay data set” (2004).)
